According to patent US20260274892A1, “MACROCYCLIC BROAD SPECTRUM ANTIBIOTICS” (RQx Pharmaceuticals, Inc., priority 2017, published 2026):

How the values were obtained:
[1] = test system: Escherichia coli ATCC 25922; test: Minimum inhibitory concentration (MIC), CLSI broth micro-dilution, E. coli; type: cell-based; settings: Escherichia coli, ATCC25922, 22 h, Table 6, cation adjusted Mueller Hinton Broth + 0.002% Tween-80, 35° C.
Outline: (§1)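 Colonies grown 20 h at 35° C on Trypticase Soy agar (MRSA) or Luria agar (E. coli) were suspended in cation-adjusted Mueller Hinton broth with 0.002% Tween-80. Suspensions were added at OD600 0.0005 to 10-point twofold compound dilutions, then incubated 22 h at 35° C.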

[2] = test system: Methicillin Resistant Staphylococcus aureus strain USA 200; test: Minimum inhibitory concentration (MIC), CLSI broth micro-dilution, S. aureus; type: cell-based; settings: Staphylococcus aureus, MRSA / USA200; Table 6; MRSA USA 200; cation adjusted Mueller Hinton Broth + 0.002% Tween-80; 35° C., 22 hours
Outline: as §1

MIC [1] [µM]	MIC [2] [µM]	SMILES
0.38	0.047	Cc1nc(-c2ccc(N3CCCC3)cc2)nc(C)c1C(=O)N[C@@H](CCN)C(=O)N(C)[C@@H]1C(=O)N[C@@H](C)C(=O)N[C@H](C(=O)NCC#N)Cc2ccc(OCCN)c(c2)-c2cc1ccc2OCCN (racemic) [Compound 321, rac-(8S,11S,14S)-3,18-bis(2-aminoethoxy)-N-(cyanomethyl)-11-methyl-14-[methyl-[rac-(2S)-4-amino-2-[[4,6-dimethyl-2-(4-pyrrolidin-1-ylphenyl)pyrimidine-5-carbonyl]amino]butanoyl]amino]-10,13-dioxo-9,12-diazatricyclo[13.3.1.12,6]icosa-1(18),2(20),3,5,15(19),16-hexaene-8-carboxamide]
0.75	0.016	Cc1nc([C@H]2CC[C@@H](C(C)(C)C)CC2)nc(C)c1C(=O)N[C@@H](CCN)C(=O)N(C)[C@@H]1C(=O)N[C@@H](C)C(=O)N[C@H](C(=O)NCC#N)Cc2ccc(OCCN)c(c2)-c2cc1ccc2OCCN [Compound 297, rac-(8S,11S,14S)-3,18-bis(2-aminoethoxy)-N-(cyanomethyl)-11-methyl-14-[methyl-[rac-(2S)-4-amino-2-[[2-(4-tert-butylcyclohexyl)-4,6-dimethyl-pyrimidine-5-carbonyl]amino]butanoyl]amino]-10,13-dioxo-9,12-diazatricyclo[13.3.1.12,6]icosa-1(18),2(20),3,5,15(19),16-hexaene-8-carboxamide]
0.38	0.031	CCCCc1ccc(Oc2ccc(C(=O)N[C@@H](CCN)C(=O)N(C)[C@@H]3C(=O)N[C@@H](C)C(=O)N[C@H](C(=O)NCC#N)Cc4ccc(OCCN)c(c4)-c4cc3ccc4OCCN)c(Cl)c2)cc1CCCC (racemic) [Compound 378, rac-(8S,11S,14S)-3,18-bis(2-aminoethoxy)-N-(cyanomethyl)-11-methyl-14-[methyl-[rac-(2S)-4-amino-2-[[2-chloro-4-(3,4-dibutylphenoxy)benzoyl]amino]butanoyl]amino]-10,13-dioxo-9,12-diazatricyclo[13.3.1.12,6]icosa-1(18),2(20),3,5,15(19),16-hexaene-8-carboxamide]
0.25	0.016	Cc1nc(N2CCC(C(C)(C)C)CC2)nc(C)c1C(=O)N[C@@H](CCN)C(=O)N(C)[C@@H]1C(=O)N[C@@H](C)C(=O)N[C@H](C(=O)NCC#N)Cc2ccc(OCCN)c(c2)-c2cc1ccc2OCCN (racemic) [Compound 315, rac-(8S,11S,14S)-3,18-bis(2-aminoethoxy)-N-(cyanomethyl)-11-methyl-14-[methyl-[rac-(2S)-4-amino-2-[[2-(4-tert-butyl-1-piperidyl)-4,6-dimethyl-pyrimidine-5-carbonyl]amino]butanoyl]amino]-10,13-dioxo-9,12-diazatricyclo[13.3.1.12,6]icosa-1(18),2(20),3,5,15(19),16-hexaene-8-carboxamide]
0.13	0.016	CCC(CC)Cc1ccc(-c2nc(C)c(C(=O)N[C@@H](CCN)C(=O)N(C)[C@@H]3C(=O)N[C@@H](C)C(=O)N[C@H](C(=O)NCC#N)Cc4ccc(OCCN)c(c4)-c4cc3ccc4OCCN)c(C)n2)cc1 (racemic) [Compound 277, rac-(8S,11S,14S)-3,18-bis(2-aminoethoxy)-N-(cyanomethyl)-11-methyl-14-[methyl-[rac-(2S)-4-amino-2-[[2-[4-(2-ethylbutyl)phenyl]-4,6-dimethyl-pyrimidine-5-carbonyl]amino]butanoyl]amino]-10,13-dioxo-9,12-diazatricyclo[13.3.1.12,6]icosa-1(18),2(20),3,5,15(19),16-hexaene-8-carboxamide]
1.4	0.25	Cc1nc(-c2ccc(OC(C)C)cc2)nc(C)c1C(=O)N[C@@H](CCN)C(=O)N(C)[C@@H]1C(=O)N[C@@H](C)C(=O)N[C@H](C(=O)NCC#N)Cc2ccc(O)c(c2)-c2cc1ccc2OCCN (racemic) [Compound 552, rac-(8S,11S,14S)-18-(2-aminoethoxy)-N-(cyanomethyl)-3-hydroxy-11-methyl-14-[methyl-[rac-(2S)-4-amino-2-[[2-(4-isopropoxyphenyl)-4,6-dimethyl-pyrimidine-5-carbonyl]amino]butanoyl]amino]-10,13-dioxo-9,12-diazatricyclo[13.3.1.12,6]icosa-1(18),2(20),3,5,15(19),16-hexaene-8-carboxamide]
0.75	0.047	Cc1nc(-c2ccc(OC3CCCCC3)cc2)nc(C)c1C(=O)N[C@@H](CCNS(C)(=O)=O)C(=O)N(C)[C@@H]1C(=O)N[C@@H](C)C(=O)N[C@H](C(=O)NCC#N)Cc2ccc(OCCN)c(c2)-c2cc1ccc2OCCN [Compound 497, (8S,11S,14S)-3,18-bis(2-aminoethoxy)-N-(cyanomethyl)-14-[[(2S)-2-[[2-[4-(cyclohexoxy)phenyl]-4,6-dimethyl-pyrimidine-5-carbonyl]amino]-4-(methanesulfonamido)butanoyl]-methyl-amino]-11-methyl-10,13-dioxo-9,12-diazatricyclo[13.3.1.12,6]icosa-1(18),2(20),3,5,15(19),16-hexaene-8-carboxamide]
0.23	0.029	CCC(C)(C)c1ccc(-c2ncc(C(=O)N[C@@H](CCN)C(=O)N(C)[C@@H]3C(=O)N[C@@H](C)C(=O)N[C@H](C(=O)NCC#N)Cc4ccc(O)c(c4)-c4cc3ccc4OCCN)c(C)n2)cc1 (racemic) [Compound 535, rac-(8S,11S,14S)-18-(2-aminoethoxy)-N-(cyanomethyl)-3-hydroxy-11-methyl-14-[methyl-[rac-(2S)-4-amino-2-[[2-[4-(1,1-dimethylpropyl)phenyl]-4-methyl-pyrimidine-5-carbonyl]amino]butanoyl]amino]-10,13-dioxo-9,12-diazatricyclo[13.3.1.12,6]icosa-1(18),2(20),3,5,15(19),16-hexaene-8-carboxamide]
0.066	0.0082	Cc1nc(-c2ccc3c(c2)CCC3(C)C)ncc1C(=O)N[C@@H](CCN)C(=O)N(C)[C@@H]1C(=O)N[C@@H](C)C(=O)N[C@H](C(=O)NCC#N)Cc2ccc(OCCN)c(c2)-c2cc1ccc2OCCN (racemic) [Compound 234, rac-(8S,11S,14S)-3,18-bis(2-aminoethoxy)-N-(cyanomethyl)-11-methyl-14-[methyl-[rac-(2S)-4-amino-2-[[2-(1,1-dimethylindan-5-yl)-4-methyl-pyrimidine-5-carbonyl]amino]butanoyl]amino]-10,13-dioxo-9,12-diazatricyclo[13.3.1.12,6]icosa-1(18),2(20),3,5,15(19),16-hexaene-8-carboxamide]
5.1	0.04	CCCCCCc1ccc(C(=O)N[C@@H](CCN)C(=O)N[C@@H]2C(=O)N[C@@H](C)C(=O)N[C@H](C(=O)NCC#N)Cc3ccc(O)c(c3)-c3cc2ccc3O)c(C)c1 (racemic) [Compound 471, rac-(8S,11S,14S)-N-(cyanomethyl)-3,18-dihydroxy-11-methyl-10,13-dioxo-14-[[rac-(2S)-4-amino-2-[(4-hexyl-2-methyl-benzoyl)amino]butanoyl]amino]-9,12-diazatricyclo[13.3.1.12,6]icosa-1(18),2(20),3,5,15(19),16-hexaene-8-carboxamide]
1	0.031	CCCCCCc1ncc(-c2ccc(C(=O)N[C@@H](CCN)C(=O)N(C)[C@@H]3C(=O)N[C@@H](C)C(=O)N[C@H](C(=O)NCC#N)Cc4ccc(OCCN)c(c4)-c4cc3ccc4OCCN)c(C(F)F)c2)cn1 (racemic) [Compound 388, rac-(8S,11S,14S)-3,18-bis(2-aminoethoxy)-N-(cyanomethyl)-11-methyl-14-[methyl-[rac-(2S)-4-amino-2-[[2-(difluoromethyl)-4-(2-hexylpyrimidin-5-yl)benzoyl]amino]butanoyl]amino]-10,13-dioxo-9,12-diazatricyclo[13.3.1.12,6]icosa-1(18),2(20),3,5,15(19),16-hexaene-8-carboxamide]
1	0.023	C[C@@H]1NC(=O)[C@@H](N(C)C(=O)[C@H](CCN)NC(=O)c2cnc(-c3ccc(C(C)(C)C)cc3)nc2N(C)C)c2ccc(OCCN)c(c2)-c2cc(ccc2OCCN)C[C@@H](C(=O)NCC#N)NC1=O [Compound 490]
1.1	0.27	Cc1nc(C#Cc2ccccc2)nc(C)c1C(=O)N[C@@H](CCN)C(=O)N(C)[C@@H]1C(=O)N[C@@H](C)C(=O)N[C@H](C(=O)NCC#N)Cc2ccc(OCCN)c(c2)-c2cc1ccc2OCCN (racemic) [Compound 309, rac-(8S,11S,14S)-3,18-bis(2-aminoethoxy)-N-(cyanomethyl)-11-methyl-14-[methyl-[rac-(2S)-4-amino-2-[[4,6-dimethyl-2-(2-phenylethynyl)pyrimidine-5-carbonyl]amino]butanoyl]amino]-10,13-dioxo-9,12-diazatricyclo[13.3.1.12,6]icosa-1(18),2(20),3,5,15(19),16-hexaene-8-carboxamide]

SMILES	MIC [1] [µM]	MIC [2] [µM]
Cc1nc(-c2ccc(OC3CCCC3)cc2)nc(C)c1C(=O)N[C@@H](CCN)C(=O)N(C)[C@@H]1C(=O)N[C@@H](C)C(=O)N[C@H](C(=O)NCC#N)Cc2ccc(OCCN)c(c2)-c2cc1ccc2OCCN (racemic) [Compound 336, rac-(8S,11S,14S)-3,18-bis(2-aminoethoxy)-N-(cyanomethyl)-11-methyl-14-[methyl-[rac-(2S)-4-amino-2-[[2-[4-(cyclopentoxy)phenyl]-4,6-dimethyl-pyrimidine-5-carbonyl]amino]butanoyl]amino]-10,13-dioxo-9,12-diazatricyclo[13.3.1.12,6]icosa-1(18),2(20),3,5,15(19),16-hexaene-8-carboxamide]	0.15	0.016
